Data set [1] deals with T. cruzi (Ca-I/72) in C2C12 murine cardiomyoblasts. The note with it: antichagasic activity, Ref. 55; cited from earlier work.
For data set [2] the test system is unchanged. Briefly: T. cruzi-infected murine cardiomyoblasts (C2C12). In kind it is cell-based, Trypanosoma cruzi. The essentials:
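C2C12 mouse cardiomyoblasts infected with T. cruzi Ca-I/72 (10^3 and 10^4 parasites) and exposed to 3-fold serial dilutions of inhibitor from a 10 μM maximum, 48 h at 37° C. After PFA fixation and DAPI staining, automated imaging quantified parasites and host cells, giving EC50 and host CC50.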

Data set [3] relates to SARS-CoV-2 in Vero E6 cells. Briefly: Anti-CoV-2 activity in Vero E6 cells. In kind it is cell-based.
Data set [4] deals with esterase from porcine liver. Briefly: Hydrolysis of SMAI prodrugs by porcine esterase. In kind it is in vitro ADME. Particulars: for half-life of conversion to compound 36: porcine esterase, buffer pH 7.5, 37° C. As for the experimental part: Evaluation of SMAI Prodrugs. Esterase from porcine liver was obtained as an ammonium sulfate suspension (Sigma-Aldrich, E2884, 10 U/μL). Compounds 37-39 in 100% (v/v) DMSO solutions were diluted by 10-fold into cruzain assay buffer to make 1 mL-samples, each containing 2 mM compound. For the experimental sample, 4 μL of esterase suspension was added to the reaction mixtures (40 U/mL), which was immediately placed on a low-speed orbital shaker in a 37° C. incubator. In the meantime, a negative control (lacking esterase) and a blank control (buffer only) were included. Aliquots (140 μL) of the reaction mixtures were removed at 0, 15, 30, 60, 120, 180, and 300 min, and reactions were quenched by the addition of MeCN (260 μL). The resulting solution was vortexed, followed by centrifugation to precipitate the protein, and the resulting compounds in the supernatant were analyzed by HPLC-MS with detection at 270 nm.
Rates of de-acylation reactions of SMAI prodrugs 37-39 were obtained upon evaluation of the first-order loss of reagent as fitted to eq. 6, in which A0 and C are the initial and final fraction of unhydrolyzed compound, respectively, k is the pseudo-first order rate constant, from which the half-life was t1/2=ln 2/k.

For data set [5], the system named is SARS-CoV-2 in A549/ACE2 cells. In kind it is cell-based. The note with it: read-out: Anti-CoV-2 EC50 A549/ACE2 Cells.
In data set [6] the test system is T. b. brucei bloodstream forms. The experiment in a line: Growth of axenic cultures of T. b. brucei bloodstream forms (BSFs).
Another data set addresses cruzain (Trypanosoma cruzi, UniProt P25779). The experiment in a line: biochemical. The note with it: for Ki: pH 7.5. The essentials: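 Fluorogenic assay at 25 °C following AMC release (ex 360/em 460 nm), with typically 0.2 nM cruzain and 10% DMSO, at pH 7.5 or 5.5 buffer with 5 mM DTT.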
Data set [7] deals with T. b. brucei bloodstream forms. Particulars: Ref. 25; read-out: EC50 in T. b. brucei BSFs; cited from earlier work.
A short description of data set [8]: Detection of aldehyde content using phenylhydrazine. In kind it is physicochemical. The note with it: 1 mM phenylhydrazine. As for the experimental part:
Detection of Aldehyde Content Using Phenylhydrazine. In a 96-well clear microplate, compounds 52 and 36 in DMSO solutions, or pure DMSO as a control, were diluted into the above NMR buffer without addition of DTT to make 250 μL-samples, each containing 0.2 mM of compounds and 10% DMSO (v/v). Upon addition of 1M phenylhydrazine (0.25 μL), the formation of phenylhydrazone in these wells were continuously monitored for 2 hours by measuring UV absorbance at the maximal wavelength of 282 nm.

Another data set relates to CYPs 3A4, 2D6 and 2C9. The note with it: human, 4 h, 0.5 mM, pH 7.5.
In the next data set the target is human cathepsin S (Homo sapiens (Human), UniProt P25774). The experiment in a line: Human cathepsin S inhibition. In kind it is biochemical. Particulars: pH 5.5, 25° C., 10% DMSO. On the procedure: Cruzain inhibitors were added at seven concentrations and one fixed concentration of Cbz-Phe-Arg-AMC, and time courses of AMC formation were analyzed as with cruzain.
Chain of human cathepsin S (P25774 115-331): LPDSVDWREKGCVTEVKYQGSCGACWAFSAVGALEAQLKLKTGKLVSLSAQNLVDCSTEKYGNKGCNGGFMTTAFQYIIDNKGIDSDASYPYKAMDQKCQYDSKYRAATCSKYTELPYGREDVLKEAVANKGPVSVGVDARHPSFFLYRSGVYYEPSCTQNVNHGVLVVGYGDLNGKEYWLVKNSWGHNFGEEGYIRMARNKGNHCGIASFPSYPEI

In the next data set the target is human cathepsin B (Homo sapiens (Human), UniProt P07858). Briefly: Human cathepsin B inhibition, Z-FR-AMC assay. In kind it is biochemical. Particulars: pH 5.5, 25° C., 10% DMSO; read-out: Ki* Human Cathepsin B. On the procedure: Recombinant human cathepsins B and L were purchased from Millipore Sigma and used without further treatment. The solid proteins were dissolved into a solution of 50 mM sodium acetate (pH 5.5), 1 mM EDTA, 1 mM CHAPS, 10% (v/v) DMSO, and 5 mM DTT to final concentrations of […] in 20-mL aliquots, and stored at −80° C. until needed. These samples were then diluted into the same buffer to concentrations of −100 nM, and these dilutions were stored at 4° C. and used daily until depletion.
For assays of cathepsin L and B, inhibitors were evaluated in 0.25-mL reaction mixtures containing a buffer of sodium acetate (pH 5.5), 1 mM CHAPS, 1 mM Na2EDTA, and 5 mM DTT at 25° C. The fluorogenic substrate Cbz-Phe-Arg-7-amino-4-methyl-coumarin (Z-FR-AMC) was dissolved in 100% DMSO, as were all inhibitors, and aliquots of both substrates and inhibitors were added to reaction mixtures to final concentrations of DMSO of 10% (v/v). […] Formation of the fluorescent product AMC was monitored over 30-60-minute time courses for reaction mixtures in 96-well black microplates (Corning Costar®). Rates of peptidolysis of the dipeptide-AMC substrate(s) were measured on either a SpectraMax M5 (Molecular Devices) or a Synergy HTX (Biotek, Wisnooki, VT) microplate reader with λex=360 nm, λem=460 nm in ≥8-sec intervals. Control samples excluded substrate. The measured relative fluorescence units (RFUs) of generated AMC were converted to reaction rates of μM/s by use of a standard curve of known AMC concentrations obtained for both plate readers.

For data set [9], the system named is T. b. brucei procyclic forms. The experiment in a line: Growth of axenic cultures of T. b. brucei procyclic forms (PCFs). In kind it is cell-based, Trypanosoma brucei brucei. The note with it: Trypanosoma brucei, axenic culture; read-out: EC50 T. b. brucei PCF.
For a further data set, the target named is human cathepsin L (Homo sapiens (Human), UniProt P07711). Briefly: Human cathepsin L inhibition, Z-FR-AMC assay. In kind it is biochemical. Particulars: pH 5.5, 25° C., 10% DMSO; read-out: Ki* Human Cathepsin L. The essentials: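 Recombinant human enzymes were assayed at 25°C in sodium acetate pH 5.5 with 1 mM CHAPS, 1 mM EDTA, 5 mM DTT and 10% DMSO final, using the fluorogenic substrate Z-FR-AMC. AMC release (ex 360/em 460 nm) was followed over 30–60 min and converted to rates (μM/s) via an AMC standard curve.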
Chain of human cathepsin L (P07711 114-333): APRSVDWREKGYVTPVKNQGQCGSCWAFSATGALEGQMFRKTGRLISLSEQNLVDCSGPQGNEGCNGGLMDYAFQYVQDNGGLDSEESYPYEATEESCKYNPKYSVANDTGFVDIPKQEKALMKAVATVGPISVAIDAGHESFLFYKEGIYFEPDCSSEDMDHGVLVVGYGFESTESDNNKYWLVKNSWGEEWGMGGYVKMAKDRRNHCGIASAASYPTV

Data set [10] in a line: Thiolation of inhibitors with glutathione, LCMS. In kind it is physicochemical. The note with it: 1 mM glutathione, 0.5 mM compound, Tris pH 8.0, 10% DMSO, room temperature. On the procedure: Samples were analyzed by HPLC-MS (as described above) by injecting 0.01 mL aliquots onto a Luna […] C18(2) 100 Å, 4.6 mm, 50 mm column (Phenomenex) using the HPLC method described in the chemistry section at 0-6 h time points. […] Integration of the chromatographic peaks of the inhibitors and their GSH adducts at each time point was used to determine the rate of GSH adduct formation.

The nature of data set [11]: Host cell cytotoxicity in the T. cruzi infection model. In kind it is cell-based, mouse. The note with it: mouse; host cardiomyoblasts; read-out: C2C12 Cytotoxicity CC50. On the procedure: The plates were incubated at 37° C. for 48 h, and the wells were fixed with 2% paraformaldehyde in PBS and stained with 5 μg mL-1 4,6-diamidino-2-phenylindole. After at least 30 min of incubation at room temperature in the dark, the plates were read in an automated microscope, ImageXpress Micro XL (Molecular Devices), and the images were analyzed by custom-built software to quantify and assess viability of the parasites, as well as the host cells independently. The compilation of data was used to calculate the antiparasitic activity (EC50) and host cytotoxicity (CC50).
T. cruzi infection was evaluated in C2C12 murine cardiomyoblast cells. […] The wells were fixed with 2% PFA in PBS, and stained by 5 μg/ml of DAPI. After >30 min of incubation in a dark environment, the plates were read on an ImageXpress MicroXL microscope (Molecular Devices). The images were analyzed to quantify parasites as well host cells.

Another data set relates to human dermal fibroblasts. The experiment in a line: Human cell toxicity, resazurin viability. In kind it is cell-based. Particulars: human dermal fibroblasts; read-out: Human Cell Cytotoxicity CC50. As for the experimental part: Primary human dermal fibroblast (HDF) cells were used to evaluate human cell toxicity of cruzain inhibitors. HDF cells were plated in a 384-well plate at 2400 cells per well (62,000 cells mL^−1). Inhibitors in 100% DMSO were added in duplicate to final concentrations of 0.001-0.1 mM and 1% DMSO (v/v) with 1% DMSO as a control sample, and cells were cultured at 37° C. for 48 h, followed by the addition of resazurin. Cell viability was then assessed by reading of fluorescence (excitation/emission: 544 nm/590 nm) after an additional 24 h of incubation.

[12] abbreviates: read-out: EC50 T. b. brucei BSF, axenic culture.
Where [13] appears, read: obtained >10 minutes following initiation of reaction by addition of enzyme, read-out: Ki* Cruzain.
The mark [14] stands for this setting: C2C12 murine cardiomyoblasts, read-out: EC50 T. cruzi-infected cardiomyoblasts.
[15] abbreviates: apparent tight-binding inhibition constant, 25° C., read-out: Ki*.

Several values for one entry are separate records, joined by “and”; a condition that tells them apart may be missing. Equal entries are not always repeated. Where two headings read alike, the source gives them in different places.

Chain of cruzain (P25779 123-467 limits assumed): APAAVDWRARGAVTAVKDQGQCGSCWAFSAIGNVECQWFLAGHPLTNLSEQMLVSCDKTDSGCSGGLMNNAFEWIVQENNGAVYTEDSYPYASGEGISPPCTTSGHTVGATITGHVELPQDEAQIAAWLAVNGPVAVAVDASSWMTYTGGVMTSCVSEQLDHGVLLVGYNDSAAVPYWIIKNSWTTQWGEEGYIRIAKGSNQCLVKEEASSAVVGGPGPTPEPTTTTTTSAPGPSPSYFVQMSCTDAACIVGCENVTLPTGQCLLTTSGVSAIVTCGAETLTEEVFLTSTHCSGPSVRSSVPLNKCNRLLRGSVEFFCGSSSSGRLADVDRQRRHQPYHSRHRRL

With `O=C(Cn1ccnc1[N+](=O)[O-])NCc1ccccc1` [benznidazole, reference compound], the LD50 in data set [1] is 1.5 µM. For the same compound, the EC50 in [2] (Trypanosoma cruzi, C2C12, read-out: EC50 T. cruzi-infected cardiomyoblasts) turned out to be 4 ± 2 µM.
Turning to `CCC(=O)OC1Oc2ccccc2C[C@@H]1NC(=O)[C@H](Cc1ccccc1)NC(=O)N1CCN(C)CC1` (stereo partly shown) [Compound 38], the values for the EC50 in data set [3], in [5] and in [6] (setting [12]) were 2.5 µM, 0.62 µM and 3.1 ± 0.2 µM, respectively. Besides, in data set [4], the “half-life of conversion to compound 36” value was 24 min. Moreover, at cruzain (setting [13]), the Ki was above 5 µM.
As for `N=C(N)c1ccc(/N=N/Nc2ccc(C(=N)N)cc2)cc1` [diminazene], the EC50 in data set [7] was 0.99 µM.
Regarding `CC(C)C(=O)OC1Oc2ccccc2C[C@@H]1NC(=O)[C@H](Cc1ccccc1)NC(=O)N1CCN(C)CC1` (stereo partly shown) [Compound 39], the EC50 in data set [3] came out at 4 µM; in data set [5], 0.31 µM; in data set [6] (setting [12]), 4 ± 0.2 µM; in data set [2] (setting [14]), 14 ± 6 µM. In data set [4], the “half-life of conversion to compound 36” value is on record as 16 min. The Ki on cruzain (setting [13]) was above 5 µM.
On to `CC(=O)OC1Oc2ccccc2C[C@@H]1NC(=O)[C@H](Cc1ccccc1)NC(=O)N1CCN(C)CC1` (stereo partly drawn) [Compound 37, (3S)-3-((S)-2-(4-methylpiperazine-1-carboxamido)-3-phenylpropanamido)chroman-2-yl acetate], for which the EC50 was found to be 2.5 µM in [3], 0.31 µM in [5], 3.7 µM in data set [6] (setting [12]) and 13 ± 2 µM in [2] (setting [14]). For the same compound, the “degradation in buffer without esterase” value in data set [4] (over 3 h, pH 7.5) is “about 10%”. For the same compound, the “half-life of conversion to compound 36” value in data set [4] is given as 48 min. The Ki at cruzain (setting [15]) was 1 µM; on cruzain (setting [13]), around 1 µM.
Take `CN1CCN(C(=O)N[C@@H](Cc2ccccc2)C(=O)N[C@H](C=O)CCc2ccccc2)CC1` [Compound 52, 4-Methyl-N—((S)-1-oxo-1-(((S)-1-oxo-4-phenylbutan-2-yl)amino)-3-phenylpropan-2-yl)piperazine-1-carboxamide]: the residence time on cruzain is 45 min. On cruzain (setting [13]), the Ki worked out at 0.0005 ± 0.0002 µM. Also, the “kobs of phenylhydrazone formation” value in [8] (0.2 mM compound) is “(2.61±0.05)×10^−4 s^−1”. Also, the “free aldehyde by phenylhydrazine treatment” value in [8] (aqueous buffer, 2 hours) is “completely converted to phenylhydrazone”.
`CCOC1Oc2ccccc2C[C@@H]1NC(=O)[C@H](Cc1ccccc1)NC(=O)N1CCN(C)CC1` (stereo partly drawn) [Compound 40, N-((2S)-1-(((3S)-2-ethoxychroman-3-yl)amino)-1-oxo-3-phenylpropan-2-yl)-4-methylpiperazine-1-carboxamide]: the “transformation to 36 by CYPs” value with CYPs 3A4, 2D6 and 2C9 was “no transformation to 36 was observed”. Further, the EC50 in [6] (Trypanosoma brucei, read-out: EC50 T. b. brucei BSF, axenic culture) was 11 to 14 µM; in data set [6] (setting [12]), 12 ± 0.1 µM.
Consider `O=C(N[C@@H](Cc1ccccc1)C(=O)N[C@H](/C=C/c1ncccn1)Cc1ccccc1)OCc1ccccc1` [Compound 7, Benzyl ((S)-1-Oxo-3-phenyl-1-(((S,E)-1-phenyl-4-(pyrimidin-2-yl)-but-3-en-2-yl)amino)propan-2-yl)carbamate], for which the Ki at human cathepsin S was 0.37 ± 0.02 µM; at human cathepsin B it was 32 ± 3 µM; at human cathepsin L, 1.1 ± 0.1 µM; on cruzain (Ki* Cruzain, obtained >10 minutes following initiation of reaction by addition of enzyme) it was 0.12 to 0.4 µM and 0.31 µM; at cruzain (apparent initial inhibition constant, 25° C., read-out: Ki), 28 ± 1 µM; on cruzain (setting [15]) it was 0.38 µM. In addition, the EC50 in [9] lay within 5 to 15 µM. In data set [10], the “Rate of Thiolation, k” value is reported as “Negligible”. The CC50 at 48 h in data set [11] is above 10 µM. For the same compound, the k4 at cruzain (conversion of EI* back to EI, from kobs replot or recovery after preincubation and dilution) was 0.0018 ± 0.0003 s⁻¹. In addition, in the data set with human dermal fibroblasts, the CC50 is above 100 µM.

The record behind these values is patent US20240150396A1 (The Texas A&M University System, priority 2021, published 2024).
